# From patent publication US5409932A, “Piperazine-substituted pyrroloanthracenes” (Bayer AG, priority 1993, dated 1995)
# System: human T cells
# Assay: Inhibition of 5-HT-dependent T Cell Proliferation
# Type: cell-based
# Conditions: Homo sapiens, T-cell, monocyte-free human T cells stimulated with PWM and 5-HT; 3H-thymidine incorporation; 7 days
# Excerpt: The in vitro activity of the compounds according to the invention results from their capability to inhibit T cell proliferation, which is previously stimulated by serotonin.
# Inhibition of 5-HT-dependent T Cell Proliferation
# Peripheral mononuclear blood cells (PBMC) are obtained from the buffy coat of the blood of healthy subjects. After isolation by means of isolymph gradients (Pharmacia), the PBMC are washed twice and used directly. Purified T cells are obtained by E rosette formation with sheep erythrocytes [cf. Blue, M.-L. , J. F. Daley, H. Levine, K. A. Craig and S. F. Schlossmann, 1986, Biosynthesis and surface expression of T8 by peripheral blood T4+cells in vitro, J. Immunol. 137, 1202]. Monocytes are partially removed by adhesion to tissue culture plates or flasks. PBMC, T cells or purified T cells (depleted in monocytes) at 5×10^5 /ml, 100 μl/well are cultured in RPMI 1640 medium with 10% fetal calf serum (GIBCO) and L-glutamine in 96-well microculture plates (Becton--Dickinson)under a 5% CO2 atmosphere at 37° C. for 7 days. The cultures are treated with 1 μCi of ^3 H-thymidine for 6 h on the 7th day and collected on filter paper, and the incorporated radioactivity is determined by means of liquid scintillation counting.
# The test substances are dissolved in 10 mM HCl in order to achieve a final concentration of 1 mM in each case. The compounds are diluted serially 3×with medium in order to obtain a final concentration between 33 μM-0.1 μM. PWM (1:200, pokeweed mitogen) and 5-HT (100 μm, serotonin), which contain the test substances, are added to monocyte-free human T cells. The positive control (maximum proliferation) is obtained from cultures containing T cells, PWM and 5-HT. The negative control (minimal proliferation) is obtained from cultures containing T cells and PWM without 5-HT. The inhibitory activity of the test substances is expressed as the IC50 in μM. (see also WO 92/04015)
row,Structure (SMILES),IC50 [µM]
1,NCC12c3ccccc3C(c3ccccc31)C1CN(CCCN3CCN(c4ccc(F)cc4)CC3)CC12 (stereo not shown) [Example 101],1
2,O=C1C2C3c4ccccc4C(c4ccccc43)C2C(=O)N1CCCCN1CCN(c2ccc(F)cc2)CC1 (stereo not shown) [Example 5],> 10
3,Fc1ccc(N2CCN(CCCN3CC4C5c6ccccc6C(Cl)(c6ccccc65)C4C3)CC2)cc1 (stereo not shown) [Example 100],2
4,N#CC12c3ccccc3C(c3ccccc31)C1C(=O)N(CCCN3CCN(c4ccc(F)cc4)CC3)C(=O)C12 (stereo not shown) [Example 36],> 10
5,Cc1ccc(N2CCN(CCCN3CC4C5c6ccccc6C(c6ccccc65)C4C3)CC2)cc1C (stereo not shown) [Example 92],2
6,O=C1N(CCCN2CCN(c3ccc(F)cc3)CC2)C(=O)C2(Cl)C3c4ccccc4C(c4ccccc43)C12Cl (stereo not shown) [Example 51],50
7,C=CC12c3ccccc3C(c3ccccc31)C1CN(CCCN3CCN(c4ccc(F)cc4)CC3)CC12 (stereo not shown) [Example 102],2
8,O=C1C2C(CN1CCCN1CCN(c3ccc(F)cc3)CC1)C1c3ccccc3C2(c2ccccc2)c2ccccc21 (stereo not shown) [Example 114],2
9,O=C1C2C3c4ccccc4C(CCl)(c4ccccc43)C2CN1CCCN1CCN(c2ccc(F)cc2)CC1 (stereo not shown) [Example 113],2
10,Clc1ccc(N2CCN(CCCCN3CC4C5c6ccccc6C(c6ccccc65)C4C3)CC2)cc1Cl (stereo not shown) [Example 68],5
11,O=C1C2C3c4ccccc4C(c4ccccc43)C2C(=O)N1CCCN1CCN(c2ccccc2F)CC1 (stereo not shown) [Example 18],> 10
12,COC(OC)C12c3ccccc3C(c3ccccc31)C1CN(CCCN3CCN(c4ccc(F)cc4)CC3)CC12 (stereo not shown) [Example 107],1
13,COc1ccc(N2CCN(CCCN3CC4C5c6ccccc6C(c6ccccc65)C4C3)CC2)cc1OC (stereo not shown) [Example 93],10
14,COc1ccc(N2CCN(CCCN3C(=O)C4C5c6ccccc6C(c6ccccc65)C4C3=O)CC2)cc1OC (stereo not shown) [Example 28],> 10
15,Fc1ccccc1N1CCN(CCCN2CC3C4c5ccccc5C(c5ccccc54)C3C2)CC1 (stereo not shown) [Example 83],7
16,Clc1cccc(N2CCN(CCCN3CC4C5c6ccccc6C(c6ccccc65)C4C3)CC2)c1 (stereo not shown) [Example 78],5
17,O=C1C2C(CN1CCCN1CCN(c3ccccc3)CC1)C1(Cl)c3ccccc3C2(Cl)c2ccccc21 (stereo not shown) [Example 116],2
18,COc1ccc(N2CCN(CCCCN3CC4C5c6ccccc6C(c6ccccc65)C4C3)CC2)cc1 (stereo not shown) [Example 70],0.5
19,COc1ccccc1N1CCN(CCCN2C(=O)C3C4c5ccccc5C(c5ccccc54)C3C2=O)CC1 (stereo not shown) [Example 21],> 10
20,COc1ccc(N2CCN(CCCN3CC4C5c6ccccc6C(c6ccccc65)C4C3)CC2)cc1 (stereo not shown) [Example 77],7
21,Fc1ccc(N2CCN(CCCCN3CC4C5c6ccccc6C(c6ccccc65)C4C3)CC2)cc1 (stereo not shown) [Example 69],0.6

row,Structure (SMILES),IC50 [µM]
1,Cc1ccccc1N1CCN(CCCN2CC3C4c5ccccc5C(c5ccccc54)C3C2)CC1 (stereo not shown) [Example 84],2
2,O=C1C2C3c4ccccc4C(c4ccccc4)(c4ccccc43)C2C(=O)N1CCCN1CCN(c2ccc(F)cc2)CC1 (stereo not shown) [Example 49],> 50
3,O=C1C2C3c4ccccc4C(Cl)(c4ccccc43)C2C(=O)N1CCCN1CCN(c2ccc(F)cc2)CC1 (stereo not shown) [Example 35],> 10
4,CC12CN(CCCN3CCN(c4ccc(F)cc4)CC3)CC1C1c3ccccc3C2c2ccccc21 (stereo not shown) [Example 105],2
5,O=C1C2C3c4ccccc4C(CO)(c4ccccc43)C2C(=O)N1CCCN1CCN(c2ccccc2)CC1 (stereo not shown) [Example 32],> 10
6,Cc1ccc(N2CCN(CCCN3C(=O)C4C5c6ccccc6C(c6ccccc65)C4C3=O)CC2)c(C)c1 (stereo not shown) [Example 25],> 10
7,Cc1cccc(N2CCN(CCCN3C(=O)C4C5c6ccccc6C(c6ccccc65)C4C3=O)CC2)c1 (stereo not shown) [Example 14],> 10
8,COc1ccc(N2CCN(CCCN3C(=O)C4C5c6ccccc6C(c6ccccc65)C4C3=O)CC2)cc1 (stereo not shown) [Example 12],> 10
9,O=C1C2C3c4ccccc4C(Cl)(c4ccccc43)C2C(=O)N1CCCN1CCN(c2ccccc2)CC1 (stereo not shown) [Example 34],> 10
10,CCc1ccccc1N1CCN(CCCN2C(=O)C3C4c5ccccc5C(c5ccccc54)C3C2=O)CC1 (stereo not shown) [Example 20],> 10
11,ClC12c3ccccc3C(c3ccccc31)C1CN(CCCN3CCN(c4ccccc4)CC3)CC12 (stereo not shown) [Example 99],8
12,CC12c3ccccc3C(c3ccccc31)C1CN(CCCN3CCN(c4ccc(Cl)cc4)CC3)CC12 (stereo not shown) [Example 95],5
13,O=C1C2C3c4ccccc4C(CCl)(c4ccccc43)C2C(=O)N1CCCN1CCN(c2ccc(F)cc2)CC1 (stereo not shown) [Example 48],10
14,Clc1ccc(N2CCN(CCCCN3CC4C5c6ccccc6C(c6ccccc65)C4C3)CC2)cc1 (stereo not shown) [Example 67],2
15,Cc1ccccc1N1CCN(CCCN2C(=O)C3C4c5ccccc5C(c5ccccc54)C3C2=O)CC1 (stereo not shown) [Example 19],> 10
16,O=C1C2C3c4ccccc4C(c4ccccc43)C2C(=O)N1CCCCN1CCN(c2ccccc2)CC1 (stereo not shown) [Example 4],5
17,CC12c3ccccc3C(c3ccccc31)C1CN(CCCN3CCN(c4ccccc4)CC3)CC12 (stereo not shown) [Example 94],7
18,Cc1ccc(N2CCN(CCCN3CC4C5c6ccccc6C(c6ccccc65)C4C3)CC2)cc1 (stereo not shown) [Example 76],2
19,O=C1C2C3c4ccccc4C(c4ccccc43)C2C(=O)N1CCCN1CCN(c2ccccc2)CC1 (stereo not shown) [Example 7],> 10
20,CC12CN(CCCN3CCN(c4ccccc4)CC3)CC1C1c3ccccc3C2c2ccccc21 (stereo not shown) [Example 104],2
21,COc1ccccc1N1CCN(CCCN2CC3C4c5ccccc5C(c5ccccc54)C3C2)CC1 (stereo not shown) [Example 86],3

row,Structure (SMILES),IC50 [µM]
1,"O=C1C2C3c4ccccc4C(c4ccccc43)C2C(=O)N1CCCN1CCN(c2ccc(F)cc2)CC1 (stereo not shown) [Example 1, 13-{3-[4-(4-Fluorophenyl)piperazin-1-yl]-propyl}-9,10-dihydro-9,10[3', 4']-pyrroloanthracene-12,14(11H,15H) dione]",> 10
2,O=C1C2C3c4ccccc4C(c4ccccc43)C2C(=O)N1CCCN1CCN(c2ccccc2Cl)CC1 (stereo not shown) [Example 17],> 10
3,OCC12c3ccccc3C(c3ccccc31)C1CN(CCCN3CCN(c4ccccc4)CC3)CC12 (stereo not shown) [Example 97],10
4,COc1cc(N2CCN(CCCN3CC4C5c6ccccc6C(c6ccccc65)C4C3)CC2)cc(OC)c1OC (stereo not shown) [Example 106],0.5
5,CCc1ccccc1N1CCN(CCCN2CC3C4c5ccccc5C(c5ccccc54)C3C2)CC1 (stereo not shown) [Example 85],3
6,Cc1ccccc1N1CCN(CCCCN2C(=O)C3C4c5ccccc5C(c5ccccc54)C3C2=O)CC1 (stereo not shown) [Example 8],> 10
7,Clc1cccc(N2CCN(CCCCN3CC4C5c6ccccc6C(c6ccccc65)C4C3)CC2)c1 (stereo not shown) [Example 66],2
8,O=C1C2C3c4ccccc4C(c4ccccc43)C2C(=O)N1CCCN1CCN(c2cccc(Cl)c2)CC1 (stereo not shown) [Example 13],> 10
9,O=C1N(CCCN2CCN(c3ccc(F)cc3)CC2)CC2C3c4ccccc4C(c4ccccc43)C12c1ccccc1 (stereo not shown) [Example 117],2
10,O=C1C2C3c4ccccc4C(c4ccccc43)C2C(=O)N1CCN1CCN(c2ccccc2)CC1 (stereo not shown) [Example 3],> 10
11,Fc1ccc(N2CCN(CCCN3CC4C5c6ccccc6C(C=Cc6ccccc6)(c6ccccc65)C4C3)CC2)cc1 (stereo not shown) [Example 103],2
12,O=C1C2C(CN1CCCN1CCN(c3ccc(F)cc3)CC1)C1(Cl)c3ccccc3C2(Cl)c2ccccc21 (stereo not shown) [Example 112],5
13,O=C1C2C3c4ccccc4C(c4ccccc43)C2C(=O)N1CCCN1CCN(c2ccc(C(F)(F)F)cc2)CC1 (stereo not shown) [Example 10],> 10
14,CCOc1ccccc1N1CCN(CCCN2C(=O)C3C4c5ccccc5C(c5ccccc54)C3C2=O)CC1 (stereo not shown) [Example 22],> 10
15,O=C1C2C(C(=O)N1CCCN1CCN(c3ccc(F)cc3)CC1)C1(Br)c3ccccc3C2(Br)c2ccccc21 (stereo not shown) [Example 45],> 10
16,FC(F)(F)c1cccc(N2CCN(CCCN3CC4C5c6ccccc6C(c6ccccc65)C4C3)CC2)c1 (stereo not shown) [Example 80],5
17,OCC12c3ccccc3C(c3ccccc31)C1CN(CCCN3CCN(c4ccc(F)cc4)CC3)CC12 (stereo not shown) [Example 98],10
18,O=C1C2C3c4ccccc4C(c4ccccc43)C2C(=O)N1CCCN1CCN(c2cccc(C(F)(F)F)c2)CC1 (stereo not shown) [Example 15],> 10
19,O=C1C2C3c4ccccc4C(c4ccccc43)C2C(=O)N1CCCCN1CCN(c2ccccc2F)CC1 (stereo not shown) [Example 6],> 10
20,O=C1C2C3c4ccccc4C(c4ccccc43)C2CN1CCCN1CCN(c2cc(Cl)cc(Cl)c2)CC1 (stereo not shown) [Example 115],2

# Same assay, conditions: monocyte-free human T cells stimulated with PWM and 5-HT; 3H-thymidine incorporation; 7 days
row,Structure (SMILES),IC50 [µM]
1,CC12c3ccccc3C(C)(c3ccccc31)C1C(=O)N(CCCN3CCN(c4ccc(F)cc4)CC3)C(=O)C12 (stereo not shown) [Example 110],2
2,CC12c3ccccc3C(C)(c3ccccc31)C1C(=O)N(CCCN3CCN(c4ccc(F)cc4)CC3)C(=O)C12 (stereo not shown) [Example 44],> 10
